In general, GI50 refers to the concentration at which growth is held to half of that of the control. Usually IC50 stands for the concentration that inhibits the measured activity by half.

We go through eleven compounds from US9573954B2, “Pyrazolopyrimidine compounds” (University Health Network, priority 2012, dated 2017).

Assay [1] relates to ovarian cancer cells (PA-1). Description: Cancer cell line growth inhibition, Sulforhodamine B assay, PA-1. The assay is classed as cell-based. The settings on record: 120 h, PA-1, 5 days, SRB, read-out: Cancer Cell Line GI50 Range PA-1. The method, then: (§1) Breast cancer cells (MDA-MB-231 and MDA-MB-468), colon cancer cells (HCT116) and ovarian cancer cells (PA-1 and OVCAR-3) were seeded (1000 to 4000 in 80 μl per well depending on the cell growth rate) into 96 well plates 24 hours before compound overlay. Compounds were prepared as 10 mM stock solutions in 100% DMSO which were diluted with DMEM (Dulbecco's Modified Eagle's Medium) cell growth Medium (Invitrogen, Burlington, ON, Canada) containing 10% FBS (Fetal Bovine Serum) to concentrations ranging from 50 nM to 250 μM. Aliquots (20 μl) from each concentration were overlaid to 80 μl of the pre-seeded cells in the 96 well plates to make final concentrations of 10 nM to 50 μM. The cells were cultured for 5 days before the Sulforhodamine B assay (SRB) was performed to determine the compound's cell growth inhibition activity.
(§2) Sulforhodamine B (purchased from Sigma, Oakville, ON, Canada) is a water-soluble dye that binds to the basic amino acids of the cellular proteins. Thus, colorimetric measurement of the bound dye provides an estimate of the total protein mass that is related to the cell number. the cells are fixed in situ by gently aspirating off the culture media and adding 50 μl ice cold 10% Trichloroacetic Acid (TCA) per well and incubate at 4° C. for 30-60 min, The plates are washed with H2O five times and allowed to air dry for 5 min. Addition of 50 μl 0.4% (w/v) SRB solution in 1% (v/v) acetic acid to each well and incubation for 30 min at RT completes the staining reaction. Following staining, plates are washed four times with 1% acetic acid to remove unbound dye and then allowed to air dry for 5 min. The stain is solubilized with 100 μl of 10 mM Tris pH 10.5 per well. Absorbance is read at 570 nm.
(§3) The percentage (%) of relative growth inhibition was calculated by comparing to DMSO treated only cells (100%). GI50's were determined for compounds with cytotoxic activity. The GI50 was calculated using GraphPad PRISM software (GraphPad Software, Inc., San Diego, Calif., USA).
In Table 1 below, GI50 value ranges for compound examples against breast cancer cell lines (MDA-MB-468), colon cancer cell lines (HCT116) and ovarian cancer cell lines (PA-1) are given.
(§4) In Table 2 below, GI50 value ranges for compound examples against breast cancer cell lines (MDA-MB-231), colon cancer cell lines (HCT116) and ovarian cancer cell lines (PA-1) are given.
Background: In SRB staining, fixed cells bind dye roughly in proportion to their protein.

The next assay concerns the target T1, human TTK (Homo sapiens, UniProt P33981).
T1 construct: Active TTK was purchased from Invitrogen as an amino terminal GST fusion of full length human TTK; purchased Invitrogen
T1 sequence (P33981 1-857): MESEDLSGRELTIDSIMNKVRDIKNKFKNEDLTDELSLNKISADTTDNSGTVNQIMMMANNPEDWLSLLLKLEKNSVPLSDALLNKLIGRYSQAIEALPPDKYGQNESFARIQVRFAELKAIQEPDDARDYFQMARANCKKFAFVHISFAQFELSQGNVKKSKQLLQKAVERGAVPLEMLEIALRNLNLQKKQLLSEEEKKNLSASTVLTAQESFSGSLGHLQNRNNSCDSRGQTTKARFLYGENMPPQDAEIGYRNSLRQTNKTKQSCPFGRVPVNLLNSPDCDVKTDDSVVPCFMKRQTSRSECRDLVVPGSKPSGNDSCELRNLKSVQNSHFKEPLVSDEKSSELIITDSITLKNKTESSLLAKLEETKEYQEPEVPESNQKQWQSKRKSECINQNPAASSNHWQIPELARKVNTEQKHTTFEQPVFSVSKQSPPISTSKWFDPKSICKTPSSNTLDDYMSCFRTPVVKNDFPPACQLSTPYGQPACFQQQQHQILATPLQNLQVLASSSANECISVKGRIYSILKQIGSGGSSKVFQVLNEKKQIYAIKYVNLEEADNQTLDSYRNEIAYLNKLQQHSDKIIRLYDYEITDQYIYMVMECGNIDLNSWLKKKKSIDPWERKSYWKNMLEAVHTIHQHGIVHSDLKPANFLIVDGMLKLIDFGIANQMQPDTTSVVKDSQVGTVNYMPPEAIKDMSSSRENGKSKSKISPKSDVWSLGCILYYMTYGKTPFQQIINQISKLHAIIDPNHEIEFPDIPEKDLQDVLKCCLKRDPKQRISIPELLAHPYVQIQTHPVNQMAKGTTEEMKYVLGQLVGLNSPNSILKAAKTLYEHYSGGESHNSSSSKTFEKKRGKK
The assay can be described thus: TTK inhibition assay (indirect ELISA). The settings on record: 16 μM ATP (asterisk), read-out: TTK IC50 Range. Format: biochemical. The gist of the method: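 Activity detected by indirect ELISA after compounds sat with full-length GST-TTK for 5 min prior to starting the reaction with ATP. IC50 came from a four-parameter logistic curve of % inhibition, calculated against background and uninhibited control wells.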

Assay [2] deals with colon cancer cells (HCT116). The assay can be described thus: Cancer cell line growth inhibition, Sulforhodamine B assay, HCT116. The assay is classed as cell-based. The conditions noted are these: Homo sapiens, HCT-116, 120 h, HCT116, 5 days, SRB, read-out: Cancer Cell Line GI50 Range HCT116. The procedure, abridged:
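GI50 is calculated from growth inhibition relative to DMSO controls, using TCA-fixed, SRB-stained protein mass read at 570 nm. Compound, 10 nM–50 μM final in 10% FBS DMEM, was applied for 5 days to HCT116 cells that had been plated 24 h before at 1000–4000/well.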

Assay [3] relates to breast cancer cells (MDA-MB-231). Description: Cancer cell line growth inhibition, Sulforhodamine B assay, MDA-MB-231. The assay is classed as cell-based. The settings on record: Homo sapiens, 120 h; Table 2; MDA-MB-231, 5 days, SRB; read-out: Cancer Cell Line GI50 Range MDA-MB-231. How it is done:
as §1, §2, §3, §4

The subject of assay [4] is Colon 12 tumor initiating cells. Description: Tumor-initiating cell growth inhibition, Alamar Blue assay, colon TICs. The assay is classed as cell-based. The conditions noted are these: 216 h; Table 1; colon TICs, 9 days, Alamar Blue; read-out: Tumor Initiating Cell GI50 Range Colon 12. The procedure, abridged:
(§5)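 Colon TICs (4,000/well, non-TC plates) and ovarian TICs (1,000/well, TC plates) kept in serum-free DMEM:F12 with B-27, heparin, bFGF and EGF. Compound added after 24 h at 0.1% DMSO, then 9 days (colon) or 6 days (ovarian) at 37° C. GI50 from Alamar Blue fluorescence (ex 544/em 590) after 4 h.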

Assay [5] relates to breast cancer cells (MDA-MB-468). The assay can be described thus: Cancer cell line growth inhibition, Sulforhodamine B assay, MDA-MB-468. Format: cell-based. The conditions noted are these: Homo sapiens, MDA-MB-468, 120 h, Table 1; MDA-MB-468, 5 days, SRB; read-out: Cancer Cell Line GI50 Range MDA-MB-468. The procedure, abridged: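 Sulforhodamine B staining (TCA-fixed, read at 570 nm) estimates cell mass after 5-day compound treatment of MDA-MB-468 cells, final concentrations 10 nM to 50 μM in 10% FBS DMEM. GI50 derived from growth inhibition versus DMSO controls.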

The subject of assay [6] is Ovarian 2393A tumor initiating cells. Description: Tumor-initiating cell growth inhibition, Alamar Blue assay, ovarian TICs. The assay is classed as cell-based. The settings on record: 144 h; Table 1; ovarian TICs, 6 days, Alamar Blue; read-out: Tumor Initiating Cell GI50 Range Ovarian 2393A. The procedure, abridged: as §5

Like-named read-outs stand apart in the source and are kept apart here.

For the compound `Cc1cc(-c2cnn3c(NCCC4CCOCC4)cc(Oc4cccnc4)nc23)ccc1C(=O)NC1CC1` [Example B22, N-cyclopropyl-2-methyl-4-(5-(pyridin-3-yloxy)-7-((2-(tetrahydro-2H-pyran-4-yl)ethyl)amino)pyrazolo[1,5-a]pyrimidin-3-yl)benzamide], the GI50 in assay [1] (Table 2), in assay [2] (Table 2) and in assay [3] was ≤ 100 nM in each case. Besides, at human TTK (Table 2), the IC50 was < 100 nM.
Take `Cc1cc(-c2cnn3c(NCC4CCOCC4)cc(NCC(C)(C)O)nc23)ccc1C(=O)NC1CC1` [Example B10, N-cyclopropyl-4-(5-((2-hydroxy-2-methylpropyl)amino)-7-(((tetrahydro-2H-pyran-4-yl)methyl)amino)pyrazolo[1,5-a]pyrimidin-3-yl)-2-methylbenzamide]: the GI50 in assay [1] (Table 2) is 100 to 500 nM; in assay [2] (Table 2), 100 to 500 nM; in assay [3], > 500 nM. The IC50 on human TTK (Table 2) is < 100 nM.
Regarding `Cc1cc(-c2cnn3c(NCC4CCOCC4)cc(NC4CCCCC4)nc23)ccc1C(=O)NC1CC1` [Example B24, 4-(5-(cyclohexylamino)-7-(((tetrahydro-2H-pyran-4-yl)methyl)amino)pyrazolo[1,5-a]pyrimidin-3-yl)-N-cyclopropyl-2-methylbenzamide], the GI50 in assay [1] (Table 2), in assay [2] (Table 2) and in assay [3] was ≤ 100 nM in each case. The IC50 at human TTK (Table 2) was < 100 nM.
In the case of `Cc1cc(-c2cnn3c(NCC4CCOCC4)cc(OC4CCCCC4)nc23)ccc1C(=O)NC1CC1` [Example B23, 4-(5-(cyclohexyloxy)-7-(((tetrahydro-2H-pyran-4-yl)methyl)amino)pyrazolo[1,5-a]pyrimidin-3-yl)-N-cyclopropyl-2-methylbenzamide], the GI50 in assay [1] (Table 2), in assay [2] (Table 2) and in assay [3] was 100 to 500 nM each time. In addition, the IC50 on human TTK (Table 2) is < 100 nM.
In the case of `Cc1cc(-c2cnn3c(NCC4CCOCC4)cc(N4CCOCC4)nc23)ccc1C(=O)NC1CC1` [Example B11, N-cyclopropyl-2-methyl-4-(5-morpholino-7-(((tetrahydro-2H-pyran-4-yl)methyl)amino)pyrazolo[1,5-a]pyrimidin-3-yl)benzamide], the GI50 in assay [1] (Table 2), in assay [2] (Table 2) and in assay [3] was 100 to 500 nM throughout. Besides, the IC50 at human TTK (Table 2) was < 100 nM.
In the case of `O=C(NC1CC1)c1ccc(-c2cnn3c(NCC4CCOCC4)nc(OC4CCCC4)nc23)cc1Cl` [Example A5, 2-chloro-4-(2-(cyclopentyloxy)-4-(((tetrahydro-2H-pyran-4-yl)methyl)amino)pyrazolo[1,5-a][1,3,5]triazin-8-yl)-N-cyclopropylbenzamide], the GI50 in assay [1] (Table 1) is 100 to 500 nM; in assay [4] it was 100 to 500 nM; in assay [2] (Table 1), 100 to 500 nM; in assay [5], > 500 nM; in assay [6], > 500 nM. Besides, the IC50 at human TTK (Table 1) is < 100 nM.
As to `O=C(NC1CC1)c1ccc(-c2cnn3c(NCC4CCOCC4)nc(NC4CCCC4)nc23)cc1` [Example A15, 4-(2-(cyclopentylamino)-4-(((tetrahydro-2H-pyran-4-yl)methyl)amino)pyrazolo[1,5-a][1,3,5]triazin-8-yl)-N-cyclopropylbenzamide], the GI50 in assay [1] (Table 1) was 100 to 500 nM; in assay [4], 100 to 500 nM; in assay [2] (Table 1) it was 100 to 500 nM; in assay [5] it was > 500 nM; in assay [6], 100 to 500 nM. Also, the IC50 on human TTK (Table 1) is < 100 nM.
For `Cc1cc(-c2cnn3c(NCC(C)C)cc(Oc4cccnc4)nc23)ccc1C(=O)NC1CC1` [Example B25, N-cyclopropyl-4-(7-(isobutylamino)-5-(pyridin-3-yloxy)pyrazolo[1,5-a]pyrimidin-3-yl)-2-methylbenzamide], the GI50 in assay [1] (Table 2), in assay [2] (Table 2) and in assay [3] was ≤ 100 nM throughout. Also, the IC50 on human TTK (Table 2) was < 100 nM.
For `Cc1cc(-c2cnn3c(NC[C@H]4CC[C@H](O)CC4)cc(Oc4ccccc4)nc23)ccc1C(=O)NC1CC1` [Example B31, N-cyclopropyl-4-(7-((((1r,4r)-4-hydroxycyclohexyl)-methyl)amino)-5-phenoxypyrazolo[1,5-a]pyrimidin-3-yl)-2-methylbenzamide], the GI50 in assay [1] (Table 2), in assay [2] (Table 2) and in assay [3] was ≤ 100 nM in each case. Moreover, the IC50 at human TTK (Table 2) was < 100 nM.
In the case of `O=C(NC1CC1)c1ccc(-c2cnn3c(NCC4CCOCC4)nc(N4CCOCC4)nc23)cc1Cl` [Example A6, 2-chloro-N-cyclopropyl-4-(2-morpholino-4-(((tetrahydro-2H-pyran-4-yl)methyl)amino)pyrazolo[1,5-a][1,3,5]triazin-8-yl)benzamide], the GI50 in assay [1] (Table 1) is ≤ 100 nM; in assay [4], 100 to 500 nM; in assay [2] (Table 1), 100 to 500 nM; in assay [5], > 500 nM; in assay [6], 100 to 500 nM. Moreover, the IC50 at human TTK (Table 1) was < 100 nM.
Consider `O=C(NC1CC1)c1ccc(-c2cnn3c(NCCN4CCOCC4)nc(Oc4ccccc4)nc23)cc1` [Example A7, N-cyclopropyl-4-(4-((2-morpholinoethyl)amino)-2-phenoxypyrazolo[1,5-a][1,3,5]triazin-8-yl)benzamide], for which the GI50 was 100 to 500 nM in assay [1] (Table 1); > 500 nM in assay [4]; > 500 nM in assay [2] (Table 1); > 500 nM in assay [5]; > 500 nM in assay [6]. Also, the IC50 at human TTK (Table 1) was < 100 nM.
